According to patent US10562912B2 (C&C Research Laboratories, priority 2013, dated 2020):

Legend:
Type in all cases: cell-based
DU-145 = experiment: Cell growth inhibition assay, prostate cancer cell line DU-145; conditions: Homo sapiens, DU-145 prostate cancer cell line
In short: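 DU-145 and HCT116 cells were plated at 3,000 cells/well and SW626 at 5,000 cells/well, then treated with serially diluted compounds. After 72 to 96 hours at 37° C. under 5% CO2, viability was read by CellTiter-Glo luminescence against cell-free medium wells and 0.1% DMSO wells.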

LNCaP = experiment: Cell growth inhibition assay, prostate cancer cell line LNCaP (medium with 10 ng/mL IL-6); conditions: Homo sapiens, medium supplemented with 10 ng/mL of IL-6, 10,000 cells/well
STAT3 = molecular target: T1, STAT3 (Homo sapiens, UniProt P40763); experiment: STAT3 reporter gene assay (luciferase), LNCaP stable cell line (pSTAT3-TA-luc), IL-6 stimulation
T1 construct: plasmid pSTAT3-TA-luc), which contains a stably operating STAT3 promoter; endogenous in cells
In short: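 LNCaP cells stably carrying pSTAT3-TA-luc, in RPMI1640 with 3% DCC-FBS, were treated with compound and then stimulated with 10 ng/mL IL-6 for 24–48 h at 37 °C. Luciferase activity was measured in lysates. A parallel plate measured viability by CellTiter-Glo, with stimulated 0.1% DMSO wells as the positive control.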

T1 sequence (P40763 whole entry): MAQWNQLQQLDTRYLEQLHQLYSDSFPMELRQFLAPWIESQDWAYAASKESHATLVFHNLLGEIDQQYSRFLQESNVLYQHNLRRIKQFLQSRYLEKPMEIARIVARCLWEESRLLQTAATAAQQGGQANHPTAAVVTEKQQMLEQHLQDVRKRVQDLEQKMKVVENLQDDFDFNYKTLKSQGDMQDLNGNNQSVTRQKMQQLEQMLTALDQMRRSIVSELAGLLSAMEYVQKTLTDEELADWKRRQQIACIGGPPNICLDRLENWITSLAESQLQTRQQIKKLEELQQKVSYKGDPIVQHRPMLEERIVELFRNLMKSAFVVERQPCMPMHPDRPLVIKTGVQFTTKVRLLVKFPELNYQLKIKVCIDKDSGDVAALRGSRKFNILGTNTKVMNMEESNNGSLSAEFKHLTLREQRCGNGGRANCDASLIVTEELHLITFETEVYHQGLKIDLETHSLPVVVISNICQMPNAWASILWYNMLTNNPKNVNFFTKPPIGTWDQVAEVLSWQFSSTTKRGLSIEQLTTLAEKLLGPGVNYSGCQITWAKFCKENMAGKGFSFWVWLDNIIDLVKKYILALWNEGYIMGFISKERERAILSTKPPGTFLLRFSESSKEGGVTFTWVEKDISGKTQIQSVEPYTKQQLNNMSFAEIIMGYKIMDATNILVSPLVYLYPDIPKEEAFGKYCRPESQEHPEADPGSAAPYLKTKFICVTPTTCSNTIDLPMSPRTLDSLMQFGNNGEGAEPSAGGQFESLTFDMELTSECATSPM

IC50 (DU-145) [µM]	IC50 (LNCaP) [µM]	IC50 (STAT3) [µM]	Compound
0.086	0.12	0.36	CS(=O)(=O)Nc1ccc2sc(C(=O)Nc3cc(Cl)cc(Oc4cc(F)cc(Cl)c4)c3)cc2c1 [Example 469, N-(3-chloro-5-(3-chloro-5-fluorophenoxy)phenyl)-5-(methylsulfonamido)benzo[b]thiophene-2-carboxamide]
0.015	0.015	0.1	CS(=O)(=O)Nc1cc2cc(C(=O)Nc3cc(Cl)cc(Oc4ccc(Cl)s4)c3)sc2cc1Cl [Example 473, 6-chloro-N-(3-chloro-5-((5-chlorothiophen-2-yl)oxy)phenyl)-5-(methylsulfonamido)benzo[b]thiophene-2-carboxamide]
0.01	0.02	0.014	CS(=O)(=O)Nc1cc2cc(C(=O)Nc3cc(Cl)cc(Oc4cc(F)cc(Cl)c4)c3)sc2cc1Cl [Example 483, 6-chloro-N-(3-chloro-5-(3-chloro-5-fluorophenoxy)phenyl)-5-(methylsulfonamido)benzo[b]thiophene-2-carboxamide]
0.44	0.37	0.28	COc1cccc(Oc2cc(Cl)cc(NC(=O)c3cc4cc(NS(C)(=O)=O)ccc4s3)c2)c1 [Example 457, N-(3-chloro-5-(3-methoxyphenoxy)phenyl)-5-(methylsulfonamido)benzo[b]thiophene-2-carboxamide]
0.059	0.83	0.12	CS(=O)(=O)Nc1ccc2sc(C(=O)Nc3cc(Cl)cc(Oc4ccc(OC(F)(F)F)cc4)c3)cc2c1 [Example 454, N-(3-chloro-5-(4-(trifluoromethoxy)phenoxy)phenyl)-5-(methylsulfonamido)benzo[b]thiophene-2-carboxamide]
0.01	0.013	0.025	CS(=O)(=O)Nc1cc2cc(C(=O)Nc3cc(Cl)cc(Oc4ccc(Cl)c(F)c4)c3)sc2cc1Cl [Example 477, 6-chloro-N-(3-chloro-5-(4-chloro-3-fluorophenoxy)phenyl)-5-(methylsulfonamido)benzo[b]thiophene-2-carboxamide]
0.012	0.018	0.022	CS(=O)(=O)Nc1cc2cc(C(=O)Nc3cc(Cl)cc(Oc4ccc(F)cc4)c3)sc2cc1Cl [Example 478, 6-chloro-N-(3-chloro-5-(4-fluorophenoxy)phenyl)-5-(methylsulfonamido)benzo[b]thiophene-2-carboxamide]
0.028	0.04	0.17	CS(=O)(=O)Nc1ccc2sc(C(=O)Nc3cc(Cl)cc(Oc4ccc(Cl)c(OC(F)(F)F)c4)c3)cc2c1 [Example 468, N-(3-chloro-5-(4-chloro-3-(trifluoromethoxy)phenoxy)phenyl)-5-(methylsulfonamido)benzo[b]thiophene-2-carboxamide]
0.007	0.01	0.019	CS(=O)(=O)Nc1cc2cc(C(=O)Nc3cc(Cl)cc(Oc4ccc(OC(F)(F)F)cc4)c3)sc2cc1Cl [Example 480, 6-chloro-N-(3-chloro-5-(4-(trifluoromethoxy)phenoxy)phenyl)-5-(methylsulfonamido)benzo[b]thiophene-2-carboxamide]

Continued, compound first:

Compound	IC50 (DU-145) [µM]	IC50 (LNCaP) [µM]	IC50 (STAT3) [µM]
CS(=O)(=O)Nc1ccc2sc(C(=O)Nc3cc(Cl)cc(Oc4cc(F)ccc4F)c3)cc2c1 [Example 448, N-(3-chloro-5-(2,5-difluorophenoxy)phenyl)-5-(methylsulfonamido)benzo[b]thiophene-2-carboxamide]	0.16	0.35	0.23
CC(C)Oc1cc(OC(F)(F)F)cc(C(C)(C)c2cc(Cl)cc(NC(=O)c3cc4cc(NS(=O)(=O)CC5CCOCC5)ccc4s3)c2)c1 [Example 198, N-(3-chloro-5-(2-(3-isopropoxy-5-(trifluoromethoxy)phenyl)propan-2-yl)phenyl)-5-(((tetrahydro-2H-pyran-4-yl)methyl)sulfonamido)benzo[b]thiophene-2-carboxamide]	0.017	0.046	0.03
CS(=O)(=O)Nc1ccc2sc(C(=O)Nc3cc(Cl)cc(-c4ccc(F)cc4F)n3)cc2c1 [Example 331, N-(4-chloro-6-(2,4-difluorophenyl)pyridin-2-yl)-5-(methylsulfonamido)benzo[b]thiophene-2-carboxamide]	0.034	0.15	0.051
CC(C)Oc1cc(CN2CCOCC2)cc(C(C)(C)c2cc(F)cc(NC(=O)c3cc4cc(NS(C)(=O)=O)ccc4s3)c2)c1 [Example 137, N-(3-fluoro-5-(2-(3-isopropoxy-5-(morpholinomethyl)phenyl)propan-2-yl)phenyl)-5-(methylsulfonamido)benzo[b]thiophene-2-carboxamide]	0.1	0.4	0.22
CS(=O)(=O)Nc1cc2cc(C(=O)Nc3cc(Cl)cc(Oc4ccc(Cl)cc4)c3)sc2cc1Cl [Example 449, 6-chloro-N-(3-chloro-5-(4-chlorophenoxy)phenyl)-5-(methylsulfonamido)benzo[b]thiophene-2-carboxamide]	0.01	0.022	0.024
CN(c1ccc2sc(C(=O)Nc3cc(Cl)cc(C(C)(C)c4ccc(Cl)cc4)c3)cc2c1)S(C)(=O)=O [Example 221, N-(3-chloro-5-(2-(4-chlorophenyl)propan-2-yl)phenyl)-5-(N-methylmethylsulfonamido)benzo[b]thiophene-2-carboxamide]	0.008	0.011	0.011
Cc1ccc(C(C)(C)c2cc(Cl)cc(NC(=O)c3cc4cc(NS(C)(=O)=O)ccc4s3)c2)s1 [Example 178, N-(3-chloro-5-(2-(5-methylthiophen-2-yl)propan-2-yl)phenyl)-5-(methylsulfonamido)benzo[b]thiophene-2-carboxamide]	0.024	0.042	0.025
CC(C)(c1cc(Cl)cc(NC(=O)c2cc3cc(NS(C)(=O)=O)c(Cl)cc3s2)c1)c1ccc(C#N)s1 [Example 186, 6-chloro-N-(3-chloro-5-(2-(5-cyanothiophen-2-yl)propan-2-yl)phenyl)-5-(methylsulfonamido)benzo[b]thiophene-2-carboxamide]	0.023	0.039	0.1
CC(C)Oc1cc(OC(F)(F)F)cc(C(C)(C)c2cc(I)cc(NC(=O)c3cc4cc(NS(C)(=O)=O)ccc4s3)c2)c1 [Example 213, N-(3-iodo-5-(2-(3-isopropoxy-5-(trifluoromethoxy)phenyl)propan-2-yl)phenyl)-5-(methylsulfonamido)benzo[b]thiophene-2-carboxamide]	0.011	0.025	0.018
CC(C)(c1ccc(Cl)cc1)c1cc(Cl)cc(NC(=O)c2cc3cc(Cl)c(NS(C)(=O)=O)cc3s2)c1 [Example 184, 5-chloro-N-(3-chloro-5-(2-(4-chlorophenyl)propan-2-yl)phenyl)-6-(methylsulfonamido)benzo[b]thiophene-2-carboxamide]	0.04	0.35	0.042
Cn1cncc1-c1cc(Cl)cc(NC(=O)c2cc3cc(NS(C)(=O)=O)ccc3s2)c1 [Example 340, N-(3-chloro-5-(1-methyl-1H-imidazol-5-yl)phenyl)-5-(methylsulfonamido)benzo[b]thiophene-2-carboxamide]	> 1.1	> 1.1	> 10
CC(C)(c1ccc(Cl)cc1)c1cc(Cl)cc(NC(=O)c2cc3cc(NS(C)(=O)=O)c(Br)cc3s2)c1 [Example 173, 6-bromo-N-(3-chloro-5-(2-(4-chlorophenyl)propan-2-yl)phenyl)-5-(methylsulfonamido)benzo[b]thiophene-2-carboxamide]	0.009	0.11	0.011
CS(=O)(=O)Nc1ccc2sc(C(=O)Nc3cc(-c4ccc(F)cc4F)cc(Cl)n3)cc2c1 [Example 337, N-(6-chloro-4-(2,4-difluorophenyl)pyridin-2-yl)-5-(methylsulfonamido)benzo[b]thiophene-2-carboxamide]	0.43	0.94	0.27
CC(C)(c1cc(Cl)cc(NC(=O)c2cc3cc(NS(C)(=O)=O)ccc3s2)c1)c1cc(OC2CC2)cc(OC(F)(F)F)c1 [Example 79, N-(3-chloro-5-(2-(3-cyclopropoxy-5-(trifluoromethoxy)phenyl)propan-2-yl)phenyl)-5-(methylsulfonamido)benzo[b]thiophene-2-carboxamide]	0.008	0.039	0.014
CC(C)Oc1cc(CN2CCCC2)cc(C(C)(C)c2cc(Cl)cc(NC(=O)c3cc4cc(NS(C)(=O)=O)ccc4s3)c2)c1 [Example 125, N-(3-chloro-5-(2-(3-isopropoxy-5-(pyrrolidin-1-ylmethyl)phenyl)propan-2-yl)phenyl)-5-(methylsulfonamido)benzo[b]thiophene-2-carboxamide]	0.46	2.1	0.89
CC(C)Oc1cc(CN2CCS(=O)(=O)CC2)cc(C(C)(C)c2cc(Cl)cc(NC(=O)c3cc4cc(NS(C)(=O)=O)ccc4s3)c2)c1 [Example 132, N-(3-chloro-5-(2-(3-((1,1-dioxidothiomorpholino)methyl)-5-isopropoxyphenyl)propan-2-yl)phenyl)-5-(methylsulfonamido)benzo[b]thiophene-2-carboxamide]	0.41	0.97	0.35
